In patent publication US6506749B2, “7-oxo-pyridopyrimidines (I)” (Syntex (U.S.A.) LLC, priority 2000, dated 2003):

Compound	melting point
COC1CCC(Nc2ncc3cc(-c4ccccc4Cl)c(=O)n(C)c3n2)CC1.Cl (stereo not drawn)	189 to 192 °C
Cl.Cn1c(=O)c(-c2ccccc2Cl)cc2cnc(NC3CC(C)(C)NC(C)(C)C3)nc21	> 300 °C
CCCS(=O)(=O)N1CCC(Nc2ncc3cc(-c4ccccc4Cl)c(=O)n(C)c3n2)CC1.Cl	193.3 to 194.1 °C
Cl.Cn1c(=O)c(-c2ccccc2Cl)cc2cnc(NC3CCN(S(=O)(=O)CC(F)(F)F)CC3)nc21	215 to 219 °C
Cl.Cn1c(=O)c(-c2ccccc2Cl)cc2cnc(NC3CCS(=O)(=O)C3)nc21 (stereo not drawn)	256 to 260 °C
Cc1ccccc1-c1cc2cnc(NC3CCOCC3)nc2n(C)c1=O.Cl	222.9 to 225.9 °C
COc1ccccc1-c1cc(/C=N\C(=N)NC2CCOCC2)cn(C)c1=O.Cl	212 to 213.7 °C
Cl.Cn1c(=O)c(-c2ccccc2F)cc2cnc(NC3CCN(S(C)(=O)=O)CC3)nc21	205 to 207.5 °C
Cl.Cn1c(=O)c(-c2ccccc2F)cc2cnc(NC3CCN(S(=O)(=O)C(F)(F)F)CC3)nc21	213.5 to 221 °C
Cl.Cn1c(=O)c(-c2ccccc2F)cc2cnc(NC3CCN(S(=O)(=O)CC(F)(F)F)CC3)nc21	225.9 to 226.4 °C
COc1ccccc1-c1cc2cnc(NC3CCN(S(=O)(=O)C(C)C)CC3)nc2n(C)c1=O.Cl	157 to 163.1 °C
COc1ccccc1-c1cc2cnc(NC3CCN(S(=O)(=O)CC(F)(F)F)CC3)nc2n(C)c1=O.Cl	194.7 to 196 °C
CS(=O)(=O)N1CCC(Nc2ncc3cc(-c4ccccc4Cl)c(=O)n(N)c3n2)CC1.Cl	180.7 to 213.2 °C
Cc1ccccc1-c1cc2cnc(NC3CCS(=O)(=O)CC3)nc2n(C)c1=O.Cl	240 to 258 °C
CC(C)(CO)Nc1ncc2cc(-c3ccccc3Cl)c(=O)n(N)c2n1.Cl	145 to 163 °C
Cl.Cn1c(=O)c(-c2ccccc2Cl)cc2cnc(NC3CCC4(CC3)NC(=O)NC4=O)nc21 (stereo not drawn)	> 300 °C
Cl.O=C1CCC(Nc2ncc3cc(-c4ccccc4Cl)c(=O)n(-c4ccc(F)cc4)c3n2)CC1	242.7 to 243.6 °C
Cl.Cn1c(=O)c(-c2ccccc2Cl)cc2cnc(NC3CCN(CC(F)(F)F)CC3)nc21	180 to 183 °C
Cl.N#CCn1c(=O)c(-c2ccccc2Cl)cc2cnc(NC3CCOCC3)nc21	230.2 to 230.4 °C

Continued, values first:

melting point	Compound
193.9 to 194.5 °C	Cl.Cn1c(=O)c(-c2ccccc2Cl)cc2cnc(NC3CCOC3)nc21 (stereo not drawn)
192 to 202 °C	Cl.Cn1c(=O)c(-c2ccccc2Cl)cc2cnc(NC3CCN(C(N)=O)CC3)nc21
206 to 209 °C	CCCS(=O)(=O)N1CCC(Nc2ncc3cc(-c4ccccc4F)c(=O)n(C)c3n2)CC1.Cl
59.7 to 63.8 °C	CCCS(=O)(=O)N1CCC(Nc2ncc3cc(-c4ccccc4OC)c(=O)n(C)c3n2)CC1.Cl
182 to 186 °C	Cl.O=c1c(-c2ccccc2Cl)cc2cnc(NC3CCS(=O)(=O)CC3)nc2n1CCO
180.3 to 181.2 °C	Cl.Cn1c(=O)c(-c2ccccc2Cl)cc2cnc(NC3CCC4(CC3)OCC(C)(CO)CO4)nc21 (stereo not drawn)
290 to 293 °C	Cl.O=c1[nH]c2nc(NC3(CO)CCCC3)ncc2cc1-c1ccccc1Cl
191.1 to 194.3 °C	Cl.O=c1[nH]c2nc(N[C@H]3CC[C@H](O)CC3)ncc2cc1-c1ccccc1Cl
143 to 148 °C	Cl.Cn1c(=O)c(-c2ccccc2Cl)cc2cnc(NC3CCN(C=O)CC3)nc21
153.6 to 157 °C	Cl.Cn1c(=O)c(-c2ccccc2Cl)cc2cnc(NC3CCC(CO)CC3)nc21 (stereo not drawn)
148 to 151.5 °C	Cl.Cn1c(=O)c(-c2ccccc2Cl)cc2cnc(NCC3CCC(O)CC3)nc21 (stereo not drawn)
265.9 to 266.6 °C	Cl.Cn1c(=O)c(-c2ccccc2Cl)cc2cnc(NC3CCN(CCO)CC3)nc21
185 to 194 °C	Cl.Cn1c(=O)c(-c2ccccc2Cl)cc2cnc(NC3CCN(S(C)(=O)=O)CC3)nc21
217 to 220 °C	Cl.O=c1c(-c2ccccc2Cl)cc2cnc(NC3CCOCC3)nc2n1CCO
